In PubChem BioAssay (NCI):
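Grown in 96-well plates, cells were treated for 48 hours with each compound at five concentrations. Insufficient inhibition: endpoint recorded as highest concentration tested. At the GI50, growth is halved. TGI is the concentration that stops growth completely.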

Experiments:
Assay in all cases: growth of human tumour cells (NCI), 48 h
K-562 leukemia = tested on: K-562 leukemia
M14 melanoma = tested on: M14 melanoma
NCI-H226 lung = tested on: NCI-H226 lung
NCI-H460 lung = tested on: NCI-H460 lung
OVCAR-8 ovarian = tested on: OVCAR-8 ovarian
SF-539 CNS = tested on: SF-539 CNS
BT-549 breast = tested on: BT-549 breast
HS 578T breast = tested on: HS 578T breast
MDA-MB-231 breast = tested on: MDA-MB-231 breast
MCF7 breast = tested on: MCF7 breast

**Q.** Which results are given for `COc1ccc(/C=C2\CNC/C(=C\c3ccc(OC)cc3)C2=O)cc1`?
**A.** TGI (K-562 leukemia): 65.2 µM; TGI (M14 melanoma): > 100 µM; TGI (NCI-H226 lung): > 100 µM; TGI (NCI-H460 lung): > 100 µM; TGI (OVCAR-8 ovarian): 35.2 µM; TGI (SF-539 CNS): 41.6 µM

**Q.** How did the TGI (K-562 leukemia) turn out when `N#CC1(c2nc3ccccc3o2)C(=O)C(=O)N(c2ccc(Cl)c(Cl)c2)C(=O)C1=O` was run?
**A.** The TGI was over 100 µM.

**Q.** What about the TGI (M14 melanoma) of the same molecule?
**A.** Its TGI is over 100 µM.

**Q.** And the TGI (NCI-H226 lung)?
**A.** The TGI was over 100 µM.

**Q.** What about the TGI (NCI-H460 lung) of the same molecule?
**A.** The TGI was over 100 µM.

**Q.** What about the TGI (OVCAR-8 ovarian) of the same molecule?
**A.** The TGI was over 100 µM.

**Q.** How did the TGI (K-562 leukemia) turn out when `Cc1ccc(C2=Nc3ccccc3NC(=O)C2)cc1` was run?
**A.** The TGI was over 100 µM.

**Q.** And the TGI (M14 melanoma)?
**A.** The TGI was over 100 µM.

**Q.** And the TGI (NCI-H226 lung)?
**A.** Its TGI is over 100 µM.

**Q.** And the TGI (NCI-H460 lung)?
**A.** The TGI was over 100 µM.

**Q.** What about the TGI (OVCAR-8 ovarian) of the same molecule?
**A.** Its TGI is over 100 µM.

**Q.** And the TGI (SF-539 CNS)?
**A.** Its TGI is over 100 µM.

**Q.** How did the TGI (K-562 leukemia) turn out when `O=Cc1[nH]c2ccccc2c1Br` was run?
**A.** The TGI was 47.4 µM.

**Q.** And the TGI (M14 melanoma)?
**A.** The TGI was 46.3 µM.

**Q.** What about the TGI (NCI-H226 lung) of the same molecule?
**A.** The TGI was over 100 µM.

**Q.** And the TGI (OVCAR-8 ovarian)?
**A.** Its TGI is 64.4 µM.

**Q.** And the TGI (SF-539 CNS)?
**A.** Its TGI is 34.5 µM.

**Q.** What does the source list for `c1ccc2[nH]c(-c3ccc(OCCCCCOc4ccc(-c5nc6ccccc6[nH]5)cc4)cc3)nc2c1`?
**A.** GI50 (BT-549 breast): 2.33 µM; TGI (BT-549 breast): 5.58 µM; GI50 (HS 578T breast): 1.3 µM; TGI (HS 578T breast): 4.41 µM; GI50 (K-562 leukemia): 1.04 µM; GI50 (M14 melanoma): 1.73 µM; TGI (M14 melanoma): 4.31 µM; GI50 (MDA-MB-231 breast): 2.07 µM; TGI (MDA-MB-231 breast): 7.08 µM; GI50 (NCI-H226 lung): 21.3 µM; TGI (NCI-H226 lung): 55.9 µM; GI50 (NCI-H460 lung): 1.6 µM; TGI (NCI-H460 lung): > 100 µM; GI50 (OVCAR-8 ovarian): 4.06 µM; TGI (OVCAR-8 ovarian): 11.6 µM; GI50 (SF-539 CNS): 0.835 µM; TGI (SF-539 CNS): 2.3 µM

**Q.** `CCCCC(=O)[O-].N.N.N.N.N.[Co+3].[O-][Cl+3]([O-])([O-])[O-]` was tested. Which GI50 (K-562 leukemia) did it give?
**A.** Its GI50 is over 100 µM.

**Q.** What about the TGI (K-562 leukemia) of the same molecule?
**A.** Its TGI is over 100 µM.

**Q.** What about the GI50 (M14 melanoma) of the same molecule?
**A.** The GI50 was over 100 µM.

**Q.** What about the TGI (M14 melanoma) of the same molecule?
**A.** The TGI was over 100 µM.

**Q.** What about the GI50 (NCI-H460 lung) of the same molecule?
**A.** Its GI50 is over 100 µM.

**Q.** What about the TGI (NCI-H460 lung) of the same molecule?
**A.** Its TGI is over 100 µM.

**Q.** And the GI50 (OVCAR-8 ovarian)?
**A.** Its GI50 is over 100 µM.

**Q.** And the TGI (OVCAR-8 ovarian)?
**A.** Its TGI is over 100 µM.

**Q.** What about the GI50 (SF-539 CNS) of the same molecule?
**A.** Its GI50 is over 100 µM.

**Q.** And the TGI (SF-539 CNS)?
**A.** Its TGI is over 100 µM.

**Q.** What does the source list for `Cc1nc(Nc2ccc(F)c(Cl)c2)sc1C(=O)O`?
**A.** GI50 (BT-549 breast): 1.7 µM; TGI (BT-549 breast): 4.28 µM; GI50 (HS 578T breast): 1.87 µM; TGI (HS 578T breast): 5.44 µM; GI50 (K-562 leukemia): 2.65 µM; TGI (K-562 leukemia): > 100 µM; GI50 (M14 melanoma): 1.73 µM; TGI (M14 melanoma): 3.66 µM; GI50 (MCF7 breast): 1.53 µM; TGI (MCF7 breast): 8.18 µM; GI50 (NCI-H226 lung): 1.77 µM; TGI (NCI-H226 lung): 5.37 µM; GI50 (NCI-H460 lung): 2.07 µM; TGI (NCI-H460 lung): 4.74 µM; GI50 (OVCAR-8 ovarian): 2.14 µM; TGI (OVCAR-8 ovarian): 4.82 µM; GI50 (SF-539 CNS): 1.58 µM; TGI (SF-539 CNS): 3.07 µM

**Q.** What does the source list for `CN(C)c1ccc(/C=C2\N=C(c3ccc(N)cc3)OC2=O)cc1`?
**A.** TGI (K-562 leukemia): > 100 µM; TGI (M14 melanoma): > 100 µM; TGI (NCI-H226 lung): > 100 µM; TGI (NCI-H460 lung): > 100 µM; TGI (OVCAR-8 ovarian): > 100 µM; TGI (SF-539 CNS): > 100 µM

**Q.** For `CC[O-].CC[O-].O=Nc1ccc2cc([O-])ccc2c1.O=Nc1ccc2cc([O-])ccc2c1.[Ti+4]`, which GI50 (K-562 leukemia) is on record?
**A.** The GI50 was 2.85 µM.

**Q.** What about the TGI (K-562 leukemia) of the same molecule?
**A.** Its TGI is over 100 µM.

**Q.** And the GI50 (NCI-H226 lung)?
**A.** Its GI50 is 1.67 µM.

**Q.** And the TGI (NCI-H226 lung)?
**A.** Its TGI is 3.86 µM.

**Q.** What about the GI50 (NCI-H460 lung) of the same molecule?
**A.** Its GI50 is 3.1 µM.

**Q.** And the TGI (NCI-H460 lung)?
**A.** Its TGI is over 100 µM.

**Q.** What about the GI50 (OVCAR-8 ovarian) of the same molecule?
**A.** The GI50 was 1.47 µM.

**Q.** What about the TGI (OVCAR-8 ovarian) of the same molecule?
**A.** Its TGI is 3.28 µM.

**Q.** What about the GI50 (SF-539 CNS) of the same molecule?
**A.** Its GI50 is 1.82 µM.

**Q.** And the TGI (SF-539 CNS)?
**A.** Its TGI is 3.28 µM.

**Q.** Which TGI (K-562 leukemia) does the source give for `C=CCN=C1N=C(CC(=O)OCC)CS1` here?
**A.** The TGI was over 100 µM.

**Q.** What about the TGI (M14 melanoma) of the same molecule?
**A.** The TGI was over 100 µM.

**Q.** What about the TGI (NCI-H226 lung) of the same molecule?
**A.** Its TGI is over 100 µM.

**Q.** What about the TGI (NCI-H460 lung) of the same molecule?
**A.** The TGI was over 100 µM.

**Q.** What about the TGI (OVCAR-8 ovarian) of the same molecule?
**A.** Its TGI is over 100 µM.

**Q.** What about the TGI (SF-539 CNS) of the same molecule?
**A.** The TGI was over 100 µM.

**Q.** How did the TGI (K-562 leukemia) turn out when `Cc1c(C(=O)CC(=O)C(=O)Nc2cccc(C(F)(F)F)c2)[n+](=O)c2ccccc2n1[O-]` was run?
**A.** Its TGI is 14.1 µM.

**Q.** And the TGI (M14 melanoma)?
**A.** Its TGI is 11.4 µM.

**Q.** And the TGI (NCI-H226 lung)?
**A.** The TGI was 80.8 µM.

**Q.** What about the TGI (NCI-H460 lung) of the same molecule?
**A.** Its TGI is 8.5 µM.

**Q.** What about the TGI (OVCAR-8 ovarian) of the same molecule?
**A.** Its TGI is 6.34 µM.

**Q.** And the TGI (SF-539 CNS)?
**A.** Its TGI is 8.58 µM.

**Q.** `Cc1ccc(S(=O)(=O)OCC23CCC(C4CC42)C2CC23)cc1` (stereo unspecified) was tested. Which TGI (K-562 leukemia) did it give?
**A.** Its TGI is over 100 µM.

**Q.** And the TGI (M14 melanoma)?
**A.** The TGI was over 100 µM.

**Q.** What about the TGI (NCI-H226 lung) of the same molecule?
**A.** Its TGI is over 100 µM.

**Q.** And the TGI (NCI-H460 lung)?
**A.** The TGI was over 100 µM.

**Q.** What about the TGI (OVCAR-8 ovarian) of the same molecule?
**A.** Its TGI is over 100 µM.

**Q.** What does the source list for `CN(C)CCCn1c2c3ccccc3ccc2c2oc(=O)c3ccccc3c21`?
**A.** TGI (BT-549 breast): > 57.8 µM; TGI (HS 578T breast): > 65.6 µM; TGI (NCI-H226 lung): > 51.8 µM; TGI (NCI-H460 lung): 6.64 µM; TGI (OVCAR-8 ovarian): 8.75 µM; TGI (SF-539 CNS): 7.82 µM
